Data: US8969516B2, “Method of hydrolysis of peptide bond” (priority 2006, dated 2015)

Assay: MALDI-TOF screening of Ni^2+ dependent hydrolysis in a combinatorial peptide library
Type: physicochemical
Details: CH3CO-Gly-Ala-Ser-X-His-Z-Lys-Phe-Leu-NH2 library, Ni^2+ 2 mM, pH 8.2, 10 mM Tris, score=24/tm
Summary of the method: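 Sublibraries of Ac-Gly-Ala-Ser/Thr-X-His-Z-Lys-Phe-Leu-NH2, randomized at Z and fixed at X, were hydrolyzed at 1 mM total peptide with 2 mM Ni2+ in 10 mM Tris, pH 8.2, at 37 °C or 45 °C. Cleavage was scored visually in MALDI-TOF spectra at 2, 4, 6 and 8 h.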

Substance | hydrolysis score from MALDI-TOF screening (37° C.) | hydrolysis score from MALDI-TOF screening (45° C.)
Ac-GASQHTKFL-NH2 [SQHT] | 0 (a score of 0 if no trace of the product of hydrolysis was seen after 8 hours of incubation) | 0 (a score of 0 if no trace of the product of hydrolysis was seen after 8 hours of incubation)
Ac-GASQHVKFL-NH2 [SQHV] | 0 (a score of 0 if no trace of the product of hydrolysis was seen after 8 hours of incubation) | 4 (a score of 4 for detection at 6 hours)
Ac-GASQHWKFL-NH2 [SQHW] | 6 (a score of 6 for detection at 4 hours) | 6 (a score of 6 for detection at 4 hours)
Ac-GASQHYKFL-NH2 [SQHY] | 3 (a score of 3 for detection at 8 hours) | 4 (a score of 4 for detection at 6 hours)
Ac-GASRHAKFL-NH2 [SRHA] | 3 (a score of 3 for detection at 8 hours) | 6 (a score of 6 for detection at 4 hours)
Ac-GASRHDKFL-NH2 [SRHD] | 0 (a score of 0 if no trace of the product of hydrolysis was seen after 8 hours of incubation) | 0 (a score of 0 if no trace of the product of hydrolysis was seen after 8 hours of incubation)
Ac-GASRHEKFL-NH2 [SRHE] | 0 (a score of 0 if no trace of the product of hydrolysis was seen after 8 hours of incubation) | 3 (a score of 3 for detection at 8 hours)
Ac-GASRHFKFL-NH2 [SRHF] | 4 (a score of 4 for detection at 6 hours) | 4 (a score of 4 for detection at 6 hours)
Ac-GASRHGKFL-NH2 [SRHG] | 3 (a score of 3 for detection at 8 hours) | 6 (a score of 6 for detection at 4 hours)
Ac-GASRHHKFL-NH2 [SRHH] | 4 (a score of 4 for detection at 6 hours) | 4 (a score of 4 for detection at 6 hours)
Ac-GASRHIKFL-NH2 [SRHI] | 12 (a score of 12, if it was seen to be partially hydrolysed at 2 hours) | 12 (a score of 12, if it was seen to be partially hydrolysed at 2 hours)
Ac-GASRHKKFL-NH2 [SRHK] | 6 (a score of 6 for detection at 4 hours) | 12 (a score of 12, if it was seen to be partially hydrolysed at 2 hours)
Ac-GASRHLKFL-NH2 [SRHL] | 12 (a score of 12, if it was seen to be partially hydrolysed at 2 hours) | 12 (a score of 12, if it was seen to be partially hydrolysed at 2 hours)
Ac-GASRHMKFL-NH2 [SRHM] | 3 (a score of 3 for detection at 8 hours) | 3 (a score of 3 for detection at 8 hours)
Ac-GASRHNKFL-NH2 [SRHN] | 0 (a score of 0 if no trace of the product of hydrolysis was seen after 8 hours of incubation) | 0 (a score of 0 if no trace of the product of hydrolysis was seen after 8 hours of incubation)
Ac-GASRHPKFL-NH2 [SRHP] | 0 (a score of 0 if no trace of the product of hydrolysis was seen after 8 hours of incubation) | 0 (a score of 0 if no trace of the product of hydrolysis was seen after 8 hours of incubation)
Ac-GASRHQKFL-NH2 [SRHQ] | 0 (a score of 0 if no trace of the product of hydrolysis was seen after 8 hours of incubation) | 0 (a score of 0 if no trace of the product of hydrolysis was seen after 8 hours of incubation)
Ac-GASRHRKFL-NH2 [SRHR] | 4 (a score of 4 for detection at 6 hours) | 12 (a score of 12, if it was seen to be partially hydrolysed at 2 hours)
